Consider four substances from patent publication US10435642B2, “Ionic liquids containing symmetric quaternary phosphonium cations and phosphorus-containing anions, and their use as lubricant additives” (UT-Battelle, LLC, priority 2014, dated 2019).

Data set [1] can be described thus: Density measurement of ionic liquids. Format: physicochemical. To be noted: neat ionic liquid. As to the method: (§1) Density and Viscosity Measurements
(§2) The density and viscosity of [P8888][DEHP] were measured and compared with those of [P66614][DEHP] and [P44414][DEHP].

The nature of data set [2]: Viscosity measurement of ionic liquids. Format: physicochemical. As to the method: as §1, §2
A short description of data set [3]: Corrosion test: droplet of ionic liquid on grey cast iron. The conditions noted are these: observation in the corrosion test. From the text:
A droplet of each IL was placed on the surface of a piece of grey cast iron.

Data set [4] in a line: Thermogravimetric analysis (TGA) thermal stability in air. Format: physicochemical. The source says:
ZDDP, when decomposed, left about a 20% solid residue (“ash”) because of its zinc content. In contrast, all decomposition products of the ionic liquids were gaseous, thus confirming their “ashless” nature.

As for “tetraoctylphosphonium bis(2-ethylhexyl)phosphate [[P8888][DEHP]]”, the “ρ (density)” value in data set [1] stood at 0.86 g/cc. Further, in data set [2], the “η (viscosity) 40° C.” value stood at 608 cP and the “η (viscosity) 100° C.” value is 68 cP. The “Oil-solubility in ExxonMobil PAO 4 cSt base oil” value (ExxonMobil PAO 4 cSt base oil) is listed as over 50 wt %.
“tributyltetradecylphosphonium bis(2-ethylhexyl)phosphate [[P44414][DEHP]]”: the “ρ (density)” value in data set [1] amounted to 0.88 g/cc. Moreover, in data set [2], the “η (viscosity) 40° C.” value is reported as 252 cP and the “η (viscosity) 100° C.” value was 25 cP. Moreover, in data set [3], the “Hydrophobicity compared to the other ionic liquids” value is recorded as “lower hydrophobicity”. Further, the “Oil-solubility in Chevron SAE 10 W base oil” value (Chevron SAE 10 W base oil) is reported as under 1 wt %. Besides, the “Oil-solubility in Shell GTL 4 cSt base oil” value (Shell GTL 4 cSt base oil) was under 1 wt %.
Take “trihexyltetradecylphosphonium bis(2-ethylhexyl)phosphate [[P66614][DEHP]]”: the “ρ (density)” value in data set [1] worked out at 0.91 g/cc. Besides, in data set [2], the “η (viscosity) 40° C.” value was determined as 390 cP and the “η (viscosity) 100° C.” value is on record as 45 cP.
As for zinc dialkyldithiophosphate [ZDDP], in data set [4], the “Solid residue (ash) after decomposition” value is given as about 20%.
